Results taken from patent US20110269799A1 (priority 2008, published 2011).
Where “and” joins values, the source holds several entries; their conditions need not be identical. Equal entries are not always repeated. Where two headings read alike, the source gives them in different places.

How the values were obtained:
[1] = test system: patients with chronic atrial fibrillation; assay: PETRO phase 2 12-week dose finding study, dabigatran etexilate alone or with aspirin vs. warfarin; format: in vivo, human; settings: 12 weeks
Description: Primary endpoints were bleeding events and changes in D-dimer. […] Minor bleeding was dose related.

[2] = test system: patients with atrial fibrillation at risk of stroke
Description: Median follow-up was 2.0 years and the primary outcome was stroke or systemic embolism.
Patients were recruited from 951 clinical centers in 44 countries. In brief, patients were eligible if they had atrial fibrillation documented on electrocardiogram at screening or within 6 months; and at least one of the following: prior stroke or transient ischemic attack; left ventricular ejection fraction less than 40%; New York Heart Association heart failure symptoms of Class 2 or greater within 6 months; age at least 75 years; or age at least 65 years with diabetes mellitus, hypertension or coronary artery disease.
The time in therapeutic range was calculated by the method of Rosendaal (Rosendaal F R, et al., A method to determine the optimal intensity of oral anticoagulant therapy, Thromb Haemost, 1993, 69:236-239), excluding INRs from the first week and after discontinuations. […] Concomitant use of aspirin (less than 100 mg/day) or other antiplatelet agents was allowed.
Liver function testing was performed monthly during the first year of follow-up.
The primary study outcome was stroke or systemic embolism. The primary safety outcome was major hemorrhage. Secondary outcomes were stroke, systemic embolism and death. Other outcomes were myocardial infarction, pulmonary embolism, transient ischemic attacks, and hospitalizations. The primary net benefit-risk outcome was the composite of stroke, systemic embolism, pulmonary embolism, myocardial infarction, death or major hemorrhage. Stroke was defined as sudden onset of focal neurological deficit consistent with the territory of a major cerebral artery and categorized as ischemic, hemorrhagic or unspecified. Hemorrhagic transformation of ischemic stroke was not considered as hemorrhagic stroke. Intracranial hemorrhage included hemorrhagic stroke and sub-dural or sub-arachnoid hemorrhage. Systemic embolism was an acute vascular occlusion of an extremity or organ documented by imaging, surgery or autopsy. Major bleeding was defined as a reduction in hemoglobin level of at least […] or transfusion of at least 2 units of blood or symptomatic bleeding in a critical area or organ. Life-threatening bleeding was a subset of major bleeding that included fatal bleeding, symptomatic intracranial bleeding, bleeding with hemoglobin decrease of more than […] or requiring transfusion of more than 4 units of blood or requiring inotropic agents or necessitating surgery. All other bleeding was considered minor.
All primary and secondary outcome events were blindly and doubly adjudicated. An international team of adjudicators reviewed documents in local languages after blinding; or documents were translated by a independent group and blinded centrally. All transient ischemic attacks were reviewed to ensure that strokes had not been missed. To detect possible unreported events, symptom questionnaires were regularly administered to patients, and adverse events and hospitalization reports were scrutinized for unreported primary or secondary outcomes.
If maximum of the two p-values was greater than 0.025, the minimum of the two p-values must be less than 0.0125, one-sided, to claim statistical significance. All analyses were based on intention-to-treat.

[3] = test system: patients with atrial fibrillation
Description: PETRO-Ex began while the PETRO study was ongoing and investigators were initially kept blinded to patient treatment group until PETRO was completed. Unblinding investigators to patient treatment was possible thereafter.
Data were summarized descriptively; no hypothesis was to be tested. Events were analyzed on the basis of the treatment at onset. Incidences were reported as number of patients with events as well as normalized to 100 patient-years on the respective treatment.
Patients who completed PETRO on 50 mg b.i.d. were switched to 150 mg q.d. upon entry in the PETRO-Ex study (N=93 patients). […] Patients who were down titrated to 50 mg q.d. based on a glomerular filtration rate<50 mL/min during PETRO were excluded from the long-term trial; patients down-titrated in other dose levels remained on the q.d. treatment at that dose.

[4] = individual patients with LFT abnormalities, one patient (age, sex) per table line

## [H]/N=C(/N)c1ccc(NCc2nc3cc(C(=O)N(CCC(=O)O)c4ccccn4)ccc3n2C)cc1 [Dabigatran]
[1]
  Change in D-dimer levels: comparable to warfarin
[2]; 110 mg b.i.d.
  Rate of hemorrhagic stroke: 0.12 % per year
  Stroke, Ischemic or Unspecified, Rate: 1.35 /100 Person Years
  Stroke, systemic embolism, pulmonary embolism, myocardial infarction death or major bleed (net benefit), Rate: 7.37 /100 Person Years
[2]; 110 mg vs. Warfarin
  Extracranial Bleeding, RR: 0.93
  First Hospitalization, RR: 0.92
  Non-disabling Stroke Modified Rankin 0-2, RR: 0.87
  Stroke or systemic embolism, RR: 0.91
  Stroke, Hemorrhagic, RR: 0.31
  Stroke, RR: 0.92
  Stroke, systemic embolism, pulmonary embolism, myocardial infarction death or major bleed (net benefit), RR: 0.92
[2]; 150 mg b.i.d.
  Rate of hemorrhagic stroke: 0.10 % per year
  Stroke, systemic embolism, pulmonary embolism, myocardial infarction death or major bleed (net benefit), Rate: 7.22 /100 Person Years
[2]; 150 mg vs. 110 mg
  Stroke, Ischemic or Unspecified, RR: 0.68
  Stroke, RR: 0.70
  Stroke, systemic embolism, pulmonary embolism, myocardial infarction death or major bleed (net benefit), RR: 0.98
[2]; 150 mg vs. Warfarin
  First Hospitalization, RR: 0.97
  Major Bleeding, Other Major, RR: 1.07
  Non-disabling Stroke Modified Rankin 0-2, RR: 0.62
  Stroke or systemic embolism, RR: 0.66
  Stroke, Hemorrhagic, RR: 0.26
  Stroke, Ischemic or Unspecified, RR: 0.76
  Stroke, RR: 0.64
  Stroke, systemic embolism, pulmonary embolism, myocardial infarction death or major bleed (net benefit), RR: 0.90
[2]; in vivo
  Hepatotoxicity in serial measurement of liver function tests: no evidence of hepatotoxicity
[3]; all doses
  Fatal bleeding events, rate: 0.5 % per year
[3]; [4]
  LFT abnormality ALT/ULN: >5x x ULN (4×) and >5x^# x ULN (2×) and >3x x ULN (5×) and >3x^# x ULN
  LFT abnormality AST/ULN: >5x^# x ULN (4×) and >5x x ULN (4×) and >3x x ULN (5×)
